The source of these data is PubChem BioAssay (NCI).

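Values below derive from 48-hour exposures of cells grown in 96-well plates, with endpoints linearly interpolated between the two concentrations bracketing the appropriate inhibition level. Abbreviation: GI50, concentration required for 50% inhibition of growth. Definition used: TGI = concentration required for complete inhibition of growth.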

Test systems include MDA-MB-435; SK-MEL-5 melanoma; HOP-92 NSCLC; BT-549 breast; HOP-62 NSCLC; SW-620 colon; A549 NSCLC; LOX IMVI melanoma; NCI-H522 lung; HS 578T breast.
Assay in all cases: inhibition of tumour cell growth, NCI panel, 48 h

For `CCNC(=O)Nc1ccc(Oc2ccnc3ccc4c(ccn4C)c23)cc1`, the GI50 in the assay on MDA-MB-435 is above 100000 nM; in the assay with SK-MEL-5 melanoma it was 75500 nM; with HOP-92 NSCLC it was 45.5 µM; with BT-549 breast, 56.3 µM; with HOP-62 NSCLC, 46900 nM; with SW-620 colon it was above 100000 nM. The GI50 with A549 NSCLC was 44100 nM; in the assay on LOX IMVI melanoma it was 20400 nM; with NCI-H522 lung, 43800 nM. In addition, the TGI in the assay on MDA-MB-435 was above 100000 nM; in the assay on SK-MEL-5 melanoma, above 100 µM; in the assay with HOP-92 NSCLC, above 100 µM; with BT-549 breast it was above 100 µM; with HOP-62 NSCLC, above 100 µM; in the assay on SW-620 colon it was above 100 µM. The TGI in the assay on A549 NSCLC is above 100 µM; in the assay with LOX IMVI melanoma, 40.7 µM; in the assay with NCI-H522 lung, above 100 µM.
Regarding `CCOC(=O)NC/C=C/COC1CCCCO1` (stereo not given), the TGI in the assay on SK-MEL-5 melanoma, in the assay on HOP-62 NSCLC, in the assay on SW-620 colon, in the assay with A549 NSCLC and in the assay on NCI-H522 lung was above 100 µM in each case.
With `COC(=O)c1ccccc1N1C(=O)Cc2ccccc2C1=O`, the TGI with SK-MEL-5 melanoma, in the assay on SW-620 colon and with A549 NSCLC was above 100 µM each time.
With `O=C(OC1CCC2OOC1O2)c1ccc([N+](=O)[O-])cc1` (stereo not given), the TGI with SK-MEL-5 melanoma, in the assay with HOP-62 NSCLC, in the assay with SW-620 colon, in the assay on A549 NSCLC, in the assay on LOX IMVI melanoma and with NCI-H522 lung was above 100 µM throughout.
Take `NC1CCCCC1N.O=[Se]([O-])[O-].[Pt+4]` (stereo not given): the GI50 was 713 nM in the assay on SK-MEL-5 melanoma; 25.3 µM in the assay with HOP-92 NSCLC; 2520 nM with HOP-62 NSCLC; 90.1 nM in the assay on SW-620 colon; 480 nM with A549 NSCLC; 677 nM in the assay on LOX IMVI melanoma. Besides, the GI50 with NCI-H522 lung is 589 nM. In addition, the TGI was 82.1 µM with HOP-92 NSCLC; above 51.4 µM with HOP-62 NSCLC; above 39.9 µM with SW-620 colon; above 61.8 µM in the assay with A549 NSCLC; above 100 µM with LOX IMVI melanoma; 11.2 µM with NCI-H522 lung.
`O=[N+]([O-])c1cc([N+](=O)[O-])c(/C=C/c2ccc(Cl)c(Cl)c2)cc1/C=C/c1ccc(Cl)c(Cl)c1`: the TGI was 35.7 µM in the assay with SK-MEL-5 melanoma; 88.6 µM in the assay with SW-620 colon; above 100 µM with A549 NSCLC; 61.6 µM in the assay with LOX IMVI melanoma; 56.4 µM in the assay with NCI-H522 lung.
On to `O=C(NCc1cccnc1)C1COc2cc(-c3cc(=O)c4ccccc4o3)ccc2O1` (stereo not given), for which the TGI in the assay with SK-MEL-5 melanoma was above 100 µM; in the assay with HOP-92 NSCLC, above 100 µM; with HOP-62 NSCLC it was 24.8 µM; with SW-620 colon it was above 100 µM; in the assay with A549 NSCLC, above 100 µM; in the assay on LOX IMVI melanoma it was above 63.1 µM. Besides, the TGI in the assay with NCI-H522 lung is above 100 µM.
For `COc1cc(O)c2c(c1)O[C@@H]1OCC[C@H]21`, the TGI in the assay on SK-MEL-5 melanoma, with HOP-92 NSCLC, in the assay with HOP-62 NSCLC, with SW-620 colon, in the assay with A549 NSCLC and with LOX IMVI melanoma was above 100 µM throughout.
Regarding `Cc1cc(C)n(-c2ccnc3cc(Cl)ccc23)n1`, the TGI in the assay on SK-MEL-5 melanoma, in the assay on HOP-92 NSCLC, with HOP-62 NSCLC, in the assay on SW-620 colon, in the assay with A549 NSCLC and in the assay on LOX IMVI melanoma was above 100 µM in each case.
Consider `C(=N\Nc1ccccc1)/c1nc2ccccc2nc1/C=N/Nc1ccccc1`, for which the TGI with SK-MEL-5 melanoma was found to be 35.4 µM; in the assay on HOP-92 NSCLC it was 33.2 µM; in the assay on HOP-62 NSCLC it was 34.6 µM; in the assay on SW-620 colon, 30.7 µM; in the assay on A549 NSCLC it was 28.8 µM; in the assay on LOX IMVI melanoma, 22.1 µM. Further, in the assay on NCI-H522 lung, the TGI was 35.9 µM.
Turning to `COc1cc2c(c(OC)c1OC)-c1ccc(OC)c(=O)cc1[C@@H](NC(C)=O)CC2`, the TGI in the assay with MDA-MB-435 was below 10 nM; in the assay on BT-549 breast, above 70.9 µM; in the assay on HOP-62 NSCLC, above 625 µM; in the assay on SW-620 colon, above 394 µM; in the assay with HS 578T breast, above 100 µM; in the assay on A549 NSCLC it was above 100 µM. The TGI in the assay on LOX IMVI melanoma is above 100 µM. Besides, the GI50 in the assay with HOP-62 NSCLC is 866 nM.
On to `CC1(Br)CC2OC3(Br)C=CC(C)(O)C2(CC1=O)C3(C)C` (stereo not given), for which the TGI in the assay on SK-MEL-5 melanoma, in the assay with HOP-92 NSCLC, with HOP-62 NSCLC, in the assay on SW-620 colon, with A549 NSCLC and in the assay on LOX IMVI melanoma was above 100 µM in each case. Also, the TGI in the assay on NCI-H522 lung is above 100 µM.
For the compound `Nc1nc(Cl)cc(NCC(O)CO)n1` (stereo not given), the TGI in the assay with SK-MEL-5 melanoma, in the assay with HOP-92 NSCLC, with HOP-62 NSCLC, with SW-620 colon, in the assay with A549 NSCLC and in the assay on LOX IMVI melanoma was above 100 µM throughout.
On to `COc1ccc(Cn2cc3c(c2-c2ccccc2)CCc2cnoc2-3)cc1OC`, for which the GI50 with MDA-MB-435 is 244 nM; in the assay with SK-MEL-5 melanoma, 490 nM; in the assay on HOP-92 NSCLC it was 1.98 µM; in the assay with HOP-62 NSCLC, 1340 nM; in the assay on SW-620 colon it was 455 nM; in the assay on HS 578T breast, 564 nM. Moreover, the GI50 was 875 nM in the assay on A549 NSCLC, 819 nM in the assay on LOX IMVI melanoma and 229 nM in the assay with NCI-H522 lung. The TGI in the assay on MDA-MB-435 was 864 nM; in the assay with SK-MEL-5 melanoma, 10.4 µM; in the assay with HOP-92 NSCLC it was above 100 µM; with HOP-62 NSCLC, above 100 µM; with SW-620 colon it was above 100 µM; in the assay on HS 578T breast it was 6.94 µM. For the same compound, the TGI with A549 NSCLC was above 100 µM; with LOX IMVI melanoma, above 100 µM; in the assay with NCI-H522 lung, 0.801 µM.
For the compound `CCOC(=O)Cc1csc(Nc2ccc(OCC)cc2)n1`, the TGI in the assay on HOP-92 NSCLC, with HOP-62 NSCLC, in the assay on SW-620 colon, in the assay with A549 NSCLC and in the assay on NCI-H522 lung was above 100 µM throughout.
